Test results as given in patent publication US8795650B2, “Derivation of unlimited quantities of neutrophils or monocyte/dendritic cells” (The Regents of the University of California, priority 2004, dated 2014).

System: SCF Hoxb8-ER progenitors
Conditions: SCF medium supplemented with the cytokine
Description: Cells were photographed 6 days after differentiation was initiated by removal of estradiol. […] Distribution of mature cell types is indicated below each column, as measured at the end of the 6 day differentiation.

Substance: Erythropoietin
- impact on neutrophil-committed differentiation: no impact

Substance: GM-CSF
- progenitors maturing as macrophages (6 day differentiation): 16%
- expansion during differentiation (estradiol removed): 830 fold
